From BindingDB's records for doi:10.1021/jm3015052

target: Acetylcholinesterase (Homo sapiens, UniProt P22303); assay: Inhibition of AChE (unknown origin)
Sequence (P22303 whole entry): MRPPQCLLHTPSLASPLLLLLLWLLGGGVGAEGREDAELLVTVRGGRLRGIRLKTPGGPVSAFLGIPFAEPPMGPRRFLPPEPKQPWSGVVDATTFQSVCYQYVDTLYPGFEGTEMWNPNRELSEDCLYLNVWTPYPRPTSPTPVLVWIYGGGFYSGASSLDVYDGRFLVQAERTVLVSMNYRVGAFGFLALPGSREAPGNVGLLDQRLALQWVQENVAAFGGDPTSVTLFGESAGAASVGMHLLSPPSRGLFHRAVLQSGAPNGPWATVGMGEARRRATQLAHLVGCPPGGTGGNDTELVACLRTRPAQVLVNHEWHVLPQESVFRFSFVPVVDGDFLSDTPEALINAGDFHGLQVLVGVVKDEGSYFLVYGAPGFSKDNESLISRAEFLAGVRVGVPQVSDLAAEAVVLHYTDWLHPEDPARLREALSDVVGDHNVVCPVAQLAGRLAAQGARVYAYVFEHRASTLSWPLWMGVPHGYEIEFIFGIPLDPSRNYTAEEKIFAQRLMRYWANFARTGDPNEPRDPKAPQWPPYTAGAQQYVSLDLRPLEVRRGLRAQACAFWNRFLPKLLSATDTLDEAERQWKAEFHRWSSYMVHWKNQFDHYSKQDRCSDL

For `COc1cc(/C=C2\Oc3cc(OCCN4CCCC4)ccc3C2=O)cc(OC)c1OC`, which IC50 is on record?
The IC50 was 643 nM.

Which IC50 does the source give for `O=C1/C(=C/c2ccc(OCCN3CCCC3)cc2)Oc2ccccc21` here?
The IC50 was 545 nM.

How did the IC50 turn out when `O=C1/C(=C/c2ccc(OCCN3CCCCC3)cc2)Oc2ccccc21` was run?
The IC50 was 348 nM.

For `CCOc1ccc2c(c1)O/C(=C\c1ccc(OCCN3CCCCC3)cc1)C2=O`, which IC50 is on record?
The IC50 was 45 nM.

For `COc1ccc2c(c1)O/C(=C\c1ccc(OCCN3CCCCC3)c(Cl)c1)C2=O`, which IC50 is on record?
Its IC50 is 160 nM.

For `COc1cc(/C=C2\Oc3cc(OCCN4CCCCC4)ccc3C2=O)cc(OC)c1OC`, which IC50 is on record?
The IC50 was 422 nM.

With `COc1ccc(/C=C2\Oc3cc(OCCN4CCCCC4)ccc3C2=O)cc1` as the compound, how does the IC50 read?
Its IC50 is 845 nM.

target: T1, Diacylglycerol O-acyltransferase 1 (Homo sapiens, UniProt O75907); assay: Inhibition of DGAT1 (unknown origin)
T1 sequence (O75907 whole entry): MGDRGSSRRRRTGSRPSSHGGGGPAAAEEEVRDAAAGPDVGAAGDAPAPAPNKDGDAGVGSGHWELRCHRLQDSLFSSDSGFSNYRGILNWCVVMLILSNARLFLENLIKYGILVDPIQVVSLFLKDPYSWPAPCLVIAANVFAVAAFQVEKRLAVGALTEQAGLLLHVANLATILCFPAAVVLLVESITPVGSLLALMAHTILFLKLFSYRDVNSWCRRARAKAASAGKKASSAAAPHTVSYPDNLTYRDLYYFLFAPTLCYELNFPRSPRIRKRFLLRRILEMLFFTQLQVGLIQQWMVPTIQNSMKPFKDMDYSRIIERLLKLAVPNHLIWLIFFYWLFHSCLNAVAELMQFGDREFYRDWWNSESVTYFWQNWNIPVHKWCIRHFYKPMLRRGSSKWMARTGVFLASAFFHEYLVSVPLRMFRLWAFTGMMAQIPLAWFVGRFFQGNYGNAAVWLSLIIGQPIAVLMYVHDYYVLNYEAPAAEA

With `CC(C)=CCc1c(O)ccc2c1O/C(=C\c1ccc(O)cc1)C2=O` as the compound, how does the IC50 read?
Its IC50 is 35200 nM.

target: T2, Tyrosine-protein phosphatase non-receptor type 1 (Homo sapiens, UniProt P18031); assay: Inhibition of PTP1B (unknown origin)
T2 sequence (P18031 whole entry): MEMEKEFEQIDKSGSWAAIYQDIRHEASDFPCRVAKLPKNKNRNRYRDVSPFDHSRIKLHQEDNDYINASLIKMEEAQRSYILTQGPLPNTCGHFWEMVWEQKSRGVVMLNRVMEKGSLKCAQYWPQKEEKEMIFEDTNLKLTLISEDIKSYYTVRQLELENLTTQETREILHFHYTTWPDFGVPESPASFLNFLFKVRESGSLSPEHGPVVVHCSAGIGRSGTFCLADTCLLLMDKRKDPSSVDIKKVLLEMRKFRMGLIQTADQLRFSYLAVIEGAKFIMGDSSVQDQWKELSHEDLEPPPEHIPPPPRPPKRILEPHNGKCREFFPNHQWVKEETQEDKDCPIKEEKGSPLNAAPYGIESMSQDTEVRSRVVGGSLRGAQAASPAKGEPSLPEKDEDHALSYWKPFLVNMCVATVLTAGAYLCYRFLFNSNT

`CC(C)=CCc1c(O)ccc2c1O/C(=C\c1ccc(O)cc1)C2=O` was tested. Which IC50 did it give?
The IC50 was 11300 nM.
